The results in this text go back to PMC4876444, “Two-Photon Enzymatic Probes Visualizing Sub-cellular/Deep-brain Caspase Activities in Neurodegenerative Models” (Scientific Reports, 2016).

One data set deals with HeLa cells. As to the kind of experiment: Permeability of free dye and probes in live cells (fluorescence imaging). In kind it is cell-based, human. To be noted: HeLa cells, DMSO/STS 1 μM 4 h, then probe 24 μM 1 h at 4 °C or 37 °C, one-photon imaging. The method, then: Supplementary Figure 5. Detection of caspase activities in live mammalian cells. (a) One-photon images of AAN (5 μM)/probes (24 μM)/DMSO (blank) in live HeLa cells after 1-h incubation together with LysoTracker. (Panels 1-7) bright field; (Panels 8-14) λex = 405 nm, λem = 420-480 nm (indicative of probes, blue); (Panels 15-21) λex = 405 nm, λem = 470-500 nm (indicative of AAN, green); (Panels 22-28) LysoTracker (λex = 543 nm, λem = 560-615 nm, red); (Panels 29-35) merged images of blue/red channels. Scale bar: 20 μm. (b) Bioimaging of NIH/3T3 cells transfected with active caspase-1 (Panels 2/3/5/6; 50 ng)/caspase-3 (Panels 8/9; 15 ng)/caspase-8 (Panels 11/12; 5 ng) with/without inhibitor treatment (Panels 3/6/9/12, 50 μM of Z-VAD-FMK incubated for 1 h before probes were added) as well as control cells (Panels 1/4/7/10, no caspase transfection) by using C1RB (24 μM)/C1FS (12 μM) for caspase-1, C3RA (24 μM) for caspase-3 and C8RA (24 μM) for caspase-8. Cells were co-stained with membrane tracker. (Green) signals from caspase-cleaved probes (λex = 760 nm, λem = 480-550 nm for all probes, except for C1FS with λem = 450-550 nm). (Red) membrane tracker (λex = 650 nm, λem = 655-740 nm). (Inset) bright field. Scale bar = 10 μm. […]
XTT assay. The cytotoxicity of our probes was determined by using the XTT colorimetric cell proliferation kit (Roche) following manufacturer’s guidelines. […]

Turning to `CC(=O)N[C@@H](CC(=O)O)C(=O)N[C@@H](CCC(=O)O)C(=O)N[C@H](C(=O)N[C@@H](CC(=O)O)C(=O)Nc1ccc2cc(C(C)=O)ccc2c1)C(C)C` [C3RA, Ac-DEVD-AAN], the δΦ (two-photon action cross-section) was 2.9 GM. Besides, the “endocytosis and endo/lysosomal trapping of the probe” value in the data set with HeLa cells is “no obvious”.
